Data as given in PubChem BioAssay AID2060890 (Molecular Pharmacology Branch, DTP, NCI, 2025).

Test system: LG0703-F948-PDC complex spheroid viability
Experiment: Anticancer human tumor LG0703-F948-PDC patient-derived lung adenocarcinoma cell line growth inhibition [RAS]
Conditions: for IC50: curve of first compound; for viability, T/C: stronger effect = lower value; active = viability on the fitted dose curve at most 10% of control; inactive = the rest
How it was run: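 Tumour cells grown as complex spheroids with HUVEC endothelial cells and mesenchymal stem cells, treated with RAS pathway inhibitor combinations. Each agent spans half-log steps from near clinical Cmax, or 10 microM where Cmax is unknown.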
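Also: spheroids exposed to agents for 7 days.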
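For viability, T/C in this document: 100% = DMSO vehicle wells.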

CC1(C)CCC(Nc2ncc(C(F)(F)F)c(-c3c[nH]c4c(P(C)(C)=O)c(C#N)ccc34)n2)CN1 (configuration not stated) + C#Cc1c(F)ccc2cc(O)cc(-c3ncc4c(N5CC6CCC(C5)N6)nc(OCC56CCCN5CC(F)C6)nc4c3F)c12
3.26 nM: IC50 (second compound 10 µM)
inactive: viability, T/C (second compound 0.0316 µM, first compound 0.000949 µM) 83.1% | viability, T/C (second compound 0.0316 µM, first compound 0.003 µM) 65.2% | viability, T/C (second compound 0.0316 µM, first compound 0.00949 µM) 61.7% | viability, T/C (second compound 0.0316 µM, first compound 0.03 µM) 55.8% | viability, T/C (second compound 0.0316 µM, first compound 0.0949 µM) 63.3% | viability, T/C (second compound 0.0316 µM, first compound 0.3 µM) 67.2% | viability, T/C (second compound 0.1 µM, first compound 0.000949 µM) 93% | viability, T/C (second compound 0.1 µM, first compound 0.003 µM) 80.7% | viability, T/C (second compound 0.1 µM, first compound 0.00949 µM) 63.9% | viability, T/C (second compound 0.1 µM, first compound 0.03 µM) 69.5% | viability, T/C (second compound 0.1 µM, first compound 0.0949 µM) 76.9% | viability, T/C (second compound 0.1 µM, first compound 0.3 µM) 66.3% | viability, T/C (second compound 0.316 µM, first compound 0.000949 µM) 85.6% | viability, T/C (second compound 0.316 µM, first compound 0.003 µM) 58.7% | viability, T/C (second compound 0.316 µM, first compound 0.00949 µM) 62.5% | viability, T/C (second compound 0.316 µM, first compound 0.03 µM) 67.5% | viability, T/C (second compound 0.316 µM, first compound 0.0949 µM) 66% | viability, T/C (second compound 0.316 µM, first compound 0.3 µM) 71.2% | viability, T/C (second compound 1 µM, first compound 0.000949 µM) 62.3% | viability, T/C (second compound 1 µM, first compound 0.003 µM) 76.4% | viability, T/C (second compound 1 µM, first compound 0.00949 µM) 62.5% | viability, T/C (second compound 1 µM, first compound 0.03 µM) 59.5% | viability, T/C (second compound 1 µM, first compound 0.0949 µM) 68.9% | viability, T/C (second compound 1 µM, first compound 0.3 µM) 66.4% | viability, T/C (second compound 3.16 µM, first compound 0.000949 µM) 65.7% | viability, T/C (second compound 3.16 µM, first compound 0.003 µM) 57.5% | viability, T/C (second compound 3.16 µM, first compound 0.00949 µM) 45.1% | viability, T/C (second compound 3.16 µM, first compound 0.03 µM) 53% | viability, T/C (second compound 3.16 µM, first compound 0.0949 µM) 63.9% | viability, T/C (second compound 3.16 µM, first compound 0.3 µM) 54.4% | viability, T/C (second compound 10 µM, first compound 0.000949 µM) 58.3% | viability, T/C (second compound 10 µM, first compound 0.003 µM) 48.9% | viability, T/C (second compound 10 µM, first compound 0.00949 µM) 37.6% | viability, T/C (second compound 10 µM, first compound 0.03 µM) 47.7% | viability, T/C (second compound 10 µM, first compound 0.0949 µM) 50.3% | viability, T/C (second compound 10 µM, first compound 0.3 µM) 44.4%
> 300 nM: IC50 (second compound 0.0316 µM) | IC50 (second compound 0.1 µM) | IC50 (second compound 0.316 µM) | IC50 (second compound 1 µM) | IC50 (second compound 3.16 µM)
